{"source": "patent EP4700040A1", "about": "“PEPTIDE AND LUMINESCENT COMPLEX CONTAINING SAME” (Shenzhen Loggene Life Science & Technology Co., Ltd., priority 2023, dated 2024)", "key": {"[1]": {"tested_on": "human interleukin 6 (human IL6)", "assay": "Luciferase dual-antibody complementary activation assay for human IL6 (Example 7)", "type": "biochemical", "settings": "estimated by ((mean+3SD)-RLU0.5)/(RLU5-RLU0.5)*4.5+0.5", "description": "Expression and purification of human IL6 recombinant protein: An expression vector of human IL6 (UniProtKB ID: P05231, AA29~212) with six histidine-tagged (C-terminal) fusion proteins (SEQ ID NO: 90) was constructed. The fusion protein was recombinantly expressed in E. coli, and purified with nickel column. The protein purity was detected by denaturing SDS-polyacrylamide gel electrophoresis, and the protein concentration was detected by nucleic acid-protein quantification instrument.\nExpression and purification of a fusion protein of the small and large subunits with IL6 antibody: prokaryotic expression plasmids of the fusion protein RB073-449-1 (SEQ ID NO: 91) of the small subunit peptide RB073 with human IL6 SCFV antibody 449-1, and the fusion protein OL-453 (SEQ ID NO: 92) of the large subunit with human IL6 SCFV antibody 453 were constructed. The fusion proteins were recombinantly expressed in E. coli, and purified with nickel column. The protein purity was detected by denaturing SDS-polyacrylamide gel electrophoresis, and the protein concentration was detected by nucleic acid-protein quantification instrument.\nTest Methods • (1) Recombinant human IL6 protein was diluted with PBSA in 10-fold gradient starting from 5000 pg/ml, with 5 gradients in total. […]"}, "[2]": {"tested_on": "PCT", "assay": "Complementary activity of small subunits mutated at conserved positions, Furimazine substrate (Example 6)", "type": "biochemical, human", "settings": "MBP-PCT 3.3 ng/ml, supernatant", "procedure": "Detection Methods: • (1) The concentration of large subunit-rSCFV5 fusion protein was diluted to 12.5 nM, and 15 µl was added per well; • (2) MBP-PCT fusion protein was diluted to 3.3 ng/ml with PBSAD, and 10 µl was added per well; • (3) HB2151 strain containing plasmids with different small subunit sequences were induced by IPTG at 30°C overnight, then treated with polymyxin B for 1.5h, and centrifuged to collect the supernatant, and 2.5µl supernatant was added per well; • (4) The above three components were slightly mixed, incubated at 37°C for 7 min, and Obuffer 6.37-3 containing Furimazine at a concentration of 25 µM was added, […], the luminescence signal value was detected using a bioluminescence detector; and • (5) Clones with RLU higher than 10,000 were picked. The substrate was replaced with CTZ-h substrate for retesting (Obuffer 6.37-3 containing CTZ-h at a concentration of 25 µM was added, and after 60 s, the luminescence signal value was detected using a bioluminescence detector), and a PBSAD control was added to test the signal-to-noise ratio.\nIn order to further determine whether these three conserved amino acid sequences were changed, this example constructed a random mutation library of these three positions, with a theoretical diversity of 8,000 and a library capacity of 10^6, and 2,000 single clones were picked. The method of protein induction and expression was the same as that in Example 1. The complementary activity was tested in the same manner as that in Example 4, but the signal-to-noise ratio was not retested with CTZ-h. Clones with different activity were randomly picked for sequencing."}, "[3]": {"tested_on": "PCT", "assay": "Second library screening for PCT detection, clone supernatants, retest with CTZ-h (Example 4)", "type": "biochemical, human", "procedure": "In order to further improve the signal-to-noise ratio and complementary activity of the luciferase dual-antibody complementary activation assay, novel complementary luciferase small subunits were prepared in this example. Large subunit-rSCFV5 fusion protein (SEQ ID NO: 87) was kept unchanged, and the small subunit sequence of the rSCFV18-RB073 fusion protein (SEQ ID NO: 89) were modified by semi-randomization. The theoretical diversity was 6912, the library capacity was 10^6, and 3,000 single clones were picked. The method of protein induction and expression was the same as that in Example 2.\nDetection Methods: • (1) The concentration of large subunit-rSCFV5 fusion protein was diluted to 12.5 nM, and 15 µl was added per well; • (2) MBP-PCT fusion protein was diluted to 3.3 ng/ml with PBSAD, and 10 µl was added per well; • (3) HB2151 strain containing plasmids with different small subunit sequences were induced by IPTG at 30°C overnight, then treated with polymyxin B for 1.5h, and centrifuged to collect the supernatant, and 2.5µl supernatant was added per well; • (4) The above three components were slightly mixed, incubated at 37°C for 7 min, and Obuffer 6.37-3 containing Furimazine at a concentration of 25 µM was added, and after 3 min, the luminescence signal value was detected using a bioluminescence detector; and • (5) Clones with RLU higher than 10,000 were picked. The substrate was replaced with CTZ-h substrate for retesting (Obuffer 6.37-3 containing CTZ-h at a concentration of 25 µM was added, and after 60 s, the luminescence signal value was detected using a bioluminescence detector), and a PBSAD control was added to test the signal-to-noise ratio."}, "[4]": {"tested_on": "PCT", "assay": "Sensitivity and linear range for PCT detection of preferred small subunits (Example 5)", "type": "biochemical, human", "settings": "for luminescence value: normalized", "procedure": "Detection Methods: • (1) The concentration of large subunit-rSCFV5 fusion protein was diluted with PBSA to 8.3~25nM, and 15µl was added per well; • (2) MBP-PCT fusion proteins were diluted with PBSAD in a downward gradient starting from 2.5 µg/ml, and 10 µl was added per well; • (3) The rSCFV18-small subunit mutant-containing fusion protein was diluted with PBSA to 30~180 nM, and 15 µl was added per well; • (4) The above three components were slightly mixed, incubated at 37°C for 15 min, and Obuffer 6.37-3 containing CTZ-h at a concentration of 15 µM was added, and the luminescence signal value was immediately detected using a bioluminescence detector (the luminescence value was normalized);"}}}
{"sequence": "VEGYRLFDRKS [RB073]", "values": [{"measurement": "LLD (low limit of detection)", "setting": "[1]", "result": 0.79, "unit": "pg/mL"}, {"measurement": "activity (luminescence signal value), 3 min", "setting": "[2]; 3 min after Furimazine 25 µM", "result": 46672}, {"measurement": "activity (luminescence signal value), 6 min", "setting": "[2]; 6 min after Furimazine 25 µM", "result": 32973}]}
{"sequence": "VTGYRLFEEIL [P114, reference compound]", "values": [{"measurement": "Signal-to-noise ratio", "setting": "[3]; PCT+/PCT-, MBP-PCT 3.3 ng/ml, CTZ-h", "result": 1.9}, {"measurement": "PCT+", "setting": "[3]; luminescence signal value with MBP-PCT 3.3 ng/ml, large subunit-rSCFV5 12.5 nM, CTZ-h 25 µM, 60 s", "result": 1493}, {"measurement": "PCT-", "setting": "[3]; luminescence signal value, PBSAD control without PCT, large subunit-rSCFV5 12.5 nM, CTZ-h 25 µM, 60 s", "result": 786}, {"measurement": "luminescence value", "setting": "[4]; PCT 0.0, background", "result": 5000}, {"measurement": "luminescence value", "setting": "[4]; PCT 1 (pg/ml)", "result": 5324}, {"measurement": "luminescence value", "setting": "[4]; PCT 3 (pg/ml)", "result": 5403}, {"measurement": "luminescence value", "setting": "[4]; PCT 10 (pg/ml)", "result": 5314}, {"measurement": "luminescence value", "setting": "[4]; PCT 30 (pg/ml)", "result": 5724}, {"measurement": "luminescence value", "setting": "[4]; PCT 100 (pg/ml)", "result": 5429}, {"measurement": "luminescence value", "setting": "[4]; PCT 1000 (pg/ml)", "result": 18939}, {"measurement": "luminescence value", "setting": "[4]; PCT 10000 (pg/ml)", "result": 99257}, {"measurement": "luminescence value", "setting": "[4]; PCT 100000 (pg/ml)", "result": 804042}, {"measurement": "luminescence value", "setting": "[4]; PCT 250000 (pg/ml)", "result": 1431884}, {"measurement": "Signal-to-noise ratio at 1000 pg/ml", "setting": "[4]; large subunit 8.3~25 nM, small subunit fusion 30~180 nM, CTZ-h 15 µM", "result": 3.8}]}
